Reference: patent US20110098288A1, “SULFONAMIDES AS ZAP-70 INHIBITORS” (priority 2008, published 2011)
Where a name gives a salt, the structure may show the parent alone.

Key:
[1] = tested on: Jurkat cells; experiment: Calcium release assay (Fluo-4 flow cytometry after anti-CD3 stimulation); format: cell-based; settings: Homo sapiens, Jurkat cell line J77, anti-CD3 activation, read-out: IC50 (Calcium ion release in cells)
Method in brief: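 Jurkat J77 cells loaded with Fluo-4/Pluronic F-127 for 30 min at 37 °C, then incubated with compound at room temperature in the dark in PBS–CaCl2 with 10% FCS. Stimulation with anti-CD3 (0.2 μg/ml final) plus GAM (0.75 μg/ml final) at 37 °C, then flow-cytometric Ca2+ fluorescence acquired for 200 s.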

[2] = target: T1, ZAP-70 (Homo sapiens, UniProt P43403); experiment: ZAP-70 kinobeads assay; format: binding; settings: competition with immobilized aminopyrido-pyrimidine ligand 24 in cell lysate; ZAP-70 detected by dot blot
T1 construct: endogenous in cells; host or cells: cell lysate
T1 sequence (P43403 1-619): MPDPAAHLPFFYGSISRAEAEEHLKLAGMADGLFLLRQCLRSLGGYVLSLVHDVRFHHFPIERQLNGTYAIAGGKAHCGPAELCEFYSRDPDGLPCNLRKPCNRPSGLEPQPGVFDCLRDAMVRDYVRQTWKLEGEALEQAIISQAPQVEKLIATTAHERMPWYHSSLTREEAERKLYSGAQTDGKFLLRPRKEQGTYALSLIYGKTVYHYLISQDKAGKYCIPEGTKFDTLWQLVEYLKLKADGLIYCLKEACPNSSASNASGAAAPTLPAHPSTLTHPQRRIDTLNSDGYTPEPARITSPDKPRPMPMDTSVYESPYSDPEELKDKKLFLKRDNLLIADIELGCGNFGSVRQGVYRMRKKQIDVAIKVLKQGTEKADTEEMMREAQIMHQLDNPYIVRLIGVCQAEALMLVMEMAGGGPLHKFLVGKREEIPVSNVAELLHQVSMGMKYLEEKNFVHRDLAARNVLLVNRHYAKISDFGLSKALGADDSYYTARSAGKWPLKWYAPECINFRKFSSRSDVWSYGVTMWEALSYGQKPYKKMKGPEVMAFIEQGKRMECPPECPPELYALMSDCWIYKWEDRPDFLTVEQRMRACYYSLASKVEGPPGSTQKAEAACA
Method in brief: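 Cell lysate aliquots incubated with test compounds at various concentrations plus affinity beads carrying immobilized aminopyrido-pyrimidine ligand 24. Bead-captured proteins eluted; ZAP-70 quantified by specific antibody dot blot with infrared detection.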

Structure (SMILES)	IC50 [1]	IC50 [2]
COc1cc(Nc2ncc(F)c(Nc3cccc(C)c3NS(C)(=O)=O)n2)cc(OCCN2CCCCC2)c1OC [Example 114, N-(2-(2-(3,4-dimethoxy-5-(2-(piperidin-1-yl)ethoxy)phenylamino)-5-fluoropyrimidin-4-ylamino)-6-methylphenyl)methanesulfonamide]	100 to 1000 nM	< 100 nM
CN(C)c1ccc(Nc2ncc(F)c(Nc3ccccc3NS(C)(=O)=O)n2)cc1 [Example 7, N-(2-(2-(4-(dimethylamino)phenylamino)-5-fluoropyrimidin-4-ylamino)phenyl)methanesulfonamide]	100 to 1000 nM	100 to 1000 nM
COc1ccc(Nc2ncc(F)c(Nc3ccccc3NS(C)(=O)=O)n2)cc1 [Example 35, N-(2-(5-fluoro-2-(4-methoxyphenylamino)pyrimidin-4-ylamino)phenyl)methanesulfonamide]	100 to 1000 nM	100 to 1000 nM
CN1CCN(CCCOc2ccc(Nc3ncc(F)c(Nc4ccccc4NS(C)(=O)=O)n3)cc2)CC1 [Example 91, N-(2-(5-fluoro-2-(4-(3-(4-methylpiperazin-1-yl)propoxy)phenylamino)pyrimidin-4-ylamino)phenyl)methanesulfonamide]	100 to 1000 nM	100 to 1000 nM
COc1ccc(Nc2ncc(F)c(Nc3ccccc3NS(C)(=O)=O)n2)cc1OC [Example 36, N-(2-(2-(3,4-dimethoxyphenylamino)-5-fluoropyrimidin-4-ylamino)phenyl)methanesulfonamide]	100 to 1000 nM	100 to 1000 nM
COc1cc(Nc2nccc(Nc3cccc(C)c3NS(C)(=O)=O)n2)cc(OCCN2CCCCC2)c1 [Example 177, N-(2-(2-(3-methoxy-5-(2-(piperidin-1-yl)ethoxy)phenylamino)pyrimidin-4-ylamino)-6-methylphenyl)methanesulfonamide formate salt]	100 to 1000 nM	100 to 1000 nM
COc1cc(Nc2ncc(Cl)c(Nc3ccc4c(c3NS(C)(=O)=O)OCCO4)n2)cc(OC)c1OC [Example 164, N-(6-(5-chloro-2-(3,4,5-trimethoxyphenylamino)pyrimidin-4-ylamino)-2,3-dihydrobenzo[b][1,4]dioxin-5-yl)methanesulfonamide]	< 100 nM	< 100 nM
CN1CCN(CCOc2ccc(Nc3ncc(F)c(Nc4ccccc4NS(C)(=O)=O)n3)cc2)CC1 [Example 89, N-(2-(5-Fluoro-2-(4-(2-(4-methylpiperazin-1-yl)ethoxy)phenylamino)pyrimidin-4-ylamino)phenyl)methanesulfonamide]	100 to 1000 nM	100 to 1000 nM
CS(=O)(=O)Nc1ccccc1Nc1nc(Nc2ccc(OCCN3CCOCC3)cc2)ncc1F [Example 86, N-(2-(5-fluoro-2-(4-(2-morholinoethoxy)phenylamino)pyrimidin-4-ylamino)phenyl)methanesulfonamide]	100 to 1000 nM	100 to 1000 nM

Second part, the molecule after the results:

IC50 [1]	IC50 [2]	Structure (SMILES)
< 100 nM	< 100 nM	CCN(CC)CCOc1ccc(Nc2ncc(Cl)c(Nc3ccccc3NS(C)(=O)=O)n2)cc1 [Example 127, N-(2-(5-chloro-2-(4-(2-(diethylamino)ethoxy)phenylamino)pyrimidin-4-ylamino)phenyl)methanesulfonamide]
100 to 1000 nM	< 100 nM	CN1CCCCC1COc1cccc(Nc2ncc(Cl)c(Nc3ccccc3NS(C)(=O)=O)n2)c1 (stereo not shown) [Example 145, N-(2-(5-chloro-2-(3-((1-methylpiperidin-2-yl)methoxy)phenylamino)pyrimidin-4-ylamino)phenyl)methanesulfonamide]
< 100 nM	< 100 nM	Cc1cccc(Nc2nc(Nc3cccc(OCCN4CCCCC4)c3)ncc2Cl)c1NS(C)(=O)=O [Example 128, N-(2-(5-chloro-2-(3-(2-(piperidin-1-yl)ethoxy)phenylamino)pyrimidin-4-ylamino)-6-methylphenyl)methanesulfonamide]
100 to 1000 nM	< 100 nM	COc1ccc(Nc2ncc(Cl)c(Nc3ccccc3NS(C)(=O)=O)n2)cc1OCCN1CCCCC1 [Example 125, N-(2-(5-chloro-2-(4-methoxy-3-(2-(piperidin-1-yl)ethoxy)phenylamino)pyrimidin-4-ylamino)phenyl)methanesulfonamide]
100 to 1000 nM	100 to 1000 nM	COc1cc(Nc2ncc(F)c(Nc3ccccc3NS(C)(=O)=O)n2)cc(OCCN2CCCC2)c1 [Example 94, N-(2-(5-fluoro-2-(3-methoxy-5-(2-(pyrrolidin-1-yl)ethoxy)phenylamino)pyrimidin-4-ylamino)phenyl)methanesulfonamide formate salt]
